Measured values as given in paper PMC7265341, “Quantifying CDK inhibitor selectivity in live cells” (Nature Communications, 2020).
pIC50: −log10 of the molar value. Where two headings read alike, the source gives them in different places.

How the values were obtained:
CDK19/Cyclin C = CDK19/Cyclin C (Homo sapiens, UniProt Q9BWU1); test: NanoBRET live-cell target engagement, NanoLuc-CDK19/Cyclin C in HEK-293; conditions: for inhibition at 10 µM: read-out: Inhibition at 10µM (%), CDK19/C
CDK7 = CDK7 (Homo sapiens, UniProt P50613); test: NanoBRET live-cell target engagement, NanoLuc-CDK7 in HEK-293; type: binding
CDK20/Cyclin H = CDK20/Cyclin H (Homo sapiens, UniProt Q8IZL9); test: NanoBRET live-cell target engagement, NanoLuc-CDK20/Cyclin H in HEK-293; type: binding; conditions: for inhibition at 10 µM: read-out: Inhibition at 10µM (%), CDK20/H
CDK10/Cyclin L2 [1] = target: T1, CDK10/Cyclin L2 (Homo sapiens, UniProt Q15131); test: NanoBRET live-cell target engagement, CDK10-NanoLuc/Cyclin L2 in HEK-293; conditions: for pIC50: n=1; for inhibition at 10 µM: read-out: Inhibition at 10µM (%), CDK10/L2
CDK11A/Cyclin L2 = target: T2, CDK11A/Cyclin L2 (Homo sapiens, UniProt Q9UQ88); test: NanoBRET live-cell target engagement, CDK11A-NanoLuc/Cyclin L2 in HEK-293; type: binding; conditions: CDK11a/L2; for inhibition at 10 µM: read-out: Inhibition at 10µM (%)
T2 sequence (Q9UQ88 1-783): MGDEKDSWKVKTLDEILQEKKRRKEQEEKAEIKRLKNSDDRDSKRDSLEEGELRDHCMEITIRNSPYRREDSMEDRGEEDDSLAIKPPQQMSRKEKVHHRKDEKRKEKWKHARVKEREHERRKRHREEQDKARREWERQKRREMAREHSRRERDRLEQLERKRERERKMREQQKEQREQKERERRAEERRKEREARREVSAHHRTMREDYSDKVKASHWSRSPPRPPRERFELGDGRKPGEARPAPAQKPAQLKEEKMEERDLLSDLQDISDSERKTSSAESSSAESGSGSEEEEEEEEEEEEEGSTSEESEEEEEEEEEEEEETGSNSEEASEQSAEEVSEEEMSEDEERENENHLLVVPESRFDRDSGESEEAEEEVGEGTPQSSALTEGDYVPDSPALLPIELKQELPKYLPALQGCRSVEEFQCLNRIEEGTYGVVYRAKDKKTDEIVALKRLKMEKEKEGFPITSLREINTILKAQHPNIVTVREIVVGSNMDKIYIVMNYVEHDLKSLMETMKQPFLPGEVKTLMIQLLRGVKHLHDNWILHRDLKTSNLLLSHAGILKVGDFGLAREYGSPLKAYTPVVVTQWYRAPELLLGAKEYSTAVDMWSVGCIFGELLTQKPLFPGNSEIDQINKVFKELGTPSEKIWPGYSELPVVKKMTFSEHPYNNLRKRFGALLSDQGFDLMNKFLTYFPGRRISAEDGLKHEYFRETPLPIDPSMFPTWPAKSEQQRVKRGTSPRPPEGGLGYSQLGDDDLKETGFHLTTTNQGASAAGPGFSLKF

CDK10/Cyclin L2 [2] = target: T1, CDK10/Cyclin L2; test: cell-based
CDK11B/Cyclin L2 = CDK11B/Cyclin L2 (Homo sapiens, UniProt P21127); test: NanoBRET live-cell target engagement, CDK11B-NanoLuc/Cyclin L2 in HEK-293; type: binding; conditions: CDK11b/L2; for inhibition at 10 µM: read-out: Inhibition at 10µM (%)
CDK8/Cyclin C = CDK8/Cyclin C (Homo sapiens, UniProt P49336); test: NanoBRET live-cell target engagement, NanoLuc-CDK8/Cyclin C in HEK-293; type: binding; conditions: CDK8/C; for inhibition at 10 µM: read-out: Inhibition at 10µM (%)
Chain of CDK8/Cyclin C (P49336 whole entry): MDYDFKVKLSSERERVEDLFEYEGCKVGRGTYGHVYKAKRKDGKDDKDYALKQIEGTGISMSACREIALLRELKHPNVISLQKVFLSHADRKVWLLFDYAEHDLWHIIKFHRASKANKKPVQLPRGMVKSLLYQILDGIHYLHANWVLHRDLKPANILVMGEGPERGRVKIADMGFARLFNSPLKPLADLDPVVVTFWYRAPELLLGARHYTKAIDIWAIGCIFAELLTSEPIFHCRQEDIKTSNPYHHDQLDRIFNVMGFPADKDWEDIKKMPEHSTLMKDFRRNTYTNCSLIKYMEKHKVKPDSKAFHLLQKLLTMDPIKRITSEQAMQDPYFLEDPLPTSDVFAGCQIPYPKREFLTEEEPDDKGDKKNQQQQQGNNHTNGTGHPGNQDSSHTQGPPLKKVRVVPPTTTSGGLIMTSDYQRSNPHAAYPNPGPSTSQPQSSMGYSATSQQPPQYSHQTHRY
Chain of CDK8/Cyclin C (P24863 whole entry partner): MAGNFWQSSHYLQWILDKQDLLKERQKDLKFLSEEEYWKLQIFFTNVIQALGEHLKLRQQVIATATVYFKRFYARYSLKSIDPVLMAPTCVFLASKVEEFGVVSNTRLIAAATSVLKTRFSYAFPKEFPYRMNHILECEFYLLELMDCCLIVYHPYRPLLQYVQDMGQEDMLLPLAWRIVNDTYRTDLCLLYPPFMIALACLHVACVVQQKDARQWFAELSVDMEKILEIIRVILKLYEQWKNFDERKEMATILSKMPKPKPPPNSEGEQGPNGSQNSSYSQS

CDK13/Cyclin K = CDK13/Cyclin K (Homo sapiens, UniProt Q14004); test: NanoBRET live-cell target engagement, CDK13-NanoLuc/Cyclin K in HEK-293; type: binding; conditions: CDK13/K, 10µM
CDK16/Cyclin Y = CDK16/Cyclin Y (Homo sapiens, UniProt Q00536); test: NanoBRET live-cell target engagement, CDK16-NanoLuc/Cyclin Y in HEK-293; type: binding; conditions: CDK16/Y; 10µM
CDK18/Cyclin Y = CDK18/Cyclin Y (Homo sapiens, UniProt Q07002); test: NanoBRET live-cell target engagement, CDK18-NanoLuc/Cyclin Y in HEK-293; type: binding; conditions: CDK18/Y, 10µM
CDK15/Cyclin Y = CDK15/Cyclin Y (Homo sapiens, UniProt Q96Q40); test: NanoBRET live-cell target engagement, NanoLuc-CDK15/Cyclin Y in HEK-293; type: binding; conditions: CDK15/Y, 10µM
CDK6/Cyclin D1 = CDK6/Cyclin D1 (Homo sapiens, UniProt Q00534); test: NanoBRET live-cell target engagement, NanoLuc-CDK6/Cyclin D1 in HEK-293; type: binding; conditions: CDK6/D1, 10µM
Chain of CDK6/Cyclin D1 (Q00534 whole entry): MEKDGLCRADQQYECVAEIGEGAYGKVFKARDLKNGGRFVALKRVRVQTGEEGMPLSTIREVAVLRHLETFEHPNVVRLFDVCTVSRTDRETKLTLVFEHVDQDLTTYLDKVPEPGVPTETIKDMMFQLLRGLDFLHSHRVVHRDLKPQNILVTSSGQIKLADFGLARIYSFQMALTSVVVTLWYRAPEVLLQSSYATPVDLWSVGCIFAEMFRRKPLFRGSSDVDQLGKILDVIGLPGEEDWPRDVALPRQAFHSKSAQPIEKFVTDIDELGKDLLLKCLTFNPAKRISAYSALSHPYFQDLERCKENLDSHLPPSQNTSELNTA
Chain of CDK6/Cyclin D1 (P24385 whole entry partner): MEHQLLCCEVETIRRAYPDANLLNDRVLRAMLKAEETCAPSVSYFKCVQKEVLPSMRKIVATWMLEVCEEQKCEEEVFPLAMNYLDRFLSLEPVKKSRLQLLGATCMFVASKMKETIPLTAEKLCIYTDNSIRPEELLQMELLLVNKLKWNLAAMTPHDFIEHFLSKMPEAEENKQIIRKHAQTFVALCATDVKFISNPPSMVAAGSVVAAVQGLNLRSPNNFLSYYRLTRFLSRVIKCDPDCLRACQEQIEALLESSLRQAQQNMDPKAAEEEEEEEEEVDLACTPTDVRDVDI

CDK3/Cyclin E1 = CDK3/Cyclin E1 (Homo sapiens, UniProt Q00526); test: NanoBRET live-cell target engagement, CDK3-NanoLuc/Cyclin E1 in HEK-293; type: binding; conditions: CDK3/E1, 10µM
CDK5/CDK5R1 = CDK5/CDK5R1 (Homo sapiens, UniProt Q00535); test: NanoBRET live-cell target engagement, CDK5-NanoLuc/CDK5R1 in HEK-293; type: binding; conditions: CDK5/CDK5R1, 10µM
Chain of CDK5/CDK5R1 (Q00535 whole entry): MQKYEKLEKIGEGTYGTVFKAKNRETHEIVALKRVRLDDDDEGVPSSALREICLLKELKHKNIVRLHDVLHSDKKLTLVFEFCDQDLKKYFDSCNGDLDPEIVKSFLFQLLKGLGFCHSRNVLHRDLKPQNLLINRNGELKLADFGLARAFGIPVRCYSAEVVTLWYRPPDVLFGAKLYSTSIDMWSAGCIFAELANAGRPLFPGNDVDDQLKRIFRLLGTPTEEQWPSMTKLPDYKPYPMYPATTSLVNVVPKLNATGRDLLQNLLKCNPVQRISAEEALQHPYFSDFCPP
Chain of CDK5/CDK5R1 (Q15078 whole entry partner): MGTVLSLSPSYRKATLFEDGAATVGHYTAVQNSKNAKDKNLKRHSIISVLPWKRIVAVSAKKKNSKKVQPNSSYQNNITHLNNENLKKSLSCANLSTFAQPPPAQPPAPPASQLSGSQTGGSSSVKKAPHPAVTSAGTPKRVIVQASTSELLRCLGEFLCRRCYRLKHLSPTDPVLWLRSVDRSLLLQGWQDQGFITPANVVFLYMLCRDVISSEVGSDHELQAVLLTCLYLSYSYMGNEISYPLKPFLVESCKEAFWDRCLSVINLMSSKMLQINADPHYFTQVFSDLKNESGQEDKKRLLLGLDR

CDK1/Cyclin E1 = CDK1/Cyclin E1 (Homo sapiens, UniProt P06493); test: NanoBRET live-cell target engagement, CDK1-NanoLuc/Cyclin E1 in HEK-293; type: binding; conditions: CDK1/E1, 10µM
CDK17/Cyclin Y = CDK17/Cyclin Y (Homo sapiens, UniProt Q00537); test: NanoBRET live-cell target engagement, CDK17-NanoLuc/Cyclin Y in HEK-293; type: binding; conditions: CDK17/Y, 10µM
Chain of CDK17/Cyclin Y (Q00537 whole entry): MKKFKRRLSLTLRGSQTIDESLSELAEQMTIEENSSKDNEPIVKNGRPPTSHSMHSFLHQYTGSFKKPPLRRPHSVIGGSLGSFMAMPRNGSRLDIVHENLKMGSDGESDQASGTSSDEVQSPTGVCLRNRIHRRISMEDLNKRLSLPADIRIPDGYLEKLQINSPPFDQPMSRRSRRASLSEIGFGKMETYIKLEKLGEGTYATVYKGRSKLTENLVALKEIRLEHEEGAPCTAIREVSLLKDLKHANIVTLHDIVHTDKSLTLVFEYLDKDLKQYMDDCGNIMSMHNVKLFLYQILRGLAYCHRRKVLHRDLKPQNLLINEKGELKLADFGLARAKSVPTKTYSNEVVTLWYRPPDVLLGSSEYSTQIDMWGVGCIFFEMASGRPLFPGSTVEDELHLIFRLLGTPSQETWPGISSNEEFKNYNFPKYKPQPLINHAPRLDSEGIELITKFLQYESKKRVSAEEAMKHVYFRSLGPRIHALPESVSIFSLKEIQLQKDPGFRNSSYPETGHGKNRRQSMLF
Chain of CDK17/Cyclin Y (Q8ND76 whole entry partner): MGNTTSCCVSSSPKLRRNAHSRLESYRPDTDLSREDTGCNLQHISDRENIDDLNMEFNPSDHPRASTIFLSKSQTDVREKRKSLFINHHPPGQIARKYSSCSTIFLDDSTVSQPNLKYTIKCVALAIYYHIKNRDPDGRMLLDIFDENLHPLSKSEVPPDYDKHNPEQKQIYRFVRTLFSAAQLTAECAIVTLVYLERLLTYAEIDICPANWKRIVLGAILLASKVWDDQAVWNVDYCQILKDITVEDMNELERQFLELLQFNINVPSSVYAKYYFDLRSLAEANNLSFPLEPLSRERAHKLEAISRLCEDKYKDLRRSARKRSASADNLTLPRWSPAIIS

CDK9/Cyclin K = CDK9/Cyclin K (Homo sapiens, UniProt P50750); test: NanoBRET live-cell target engagement, NanoLuc-CDK9/Cyclin K in HEK-293; type: binding; conditions: CDK9/K, 10µM
Chain of CDK9/Cyclin K (P50750 whole entry): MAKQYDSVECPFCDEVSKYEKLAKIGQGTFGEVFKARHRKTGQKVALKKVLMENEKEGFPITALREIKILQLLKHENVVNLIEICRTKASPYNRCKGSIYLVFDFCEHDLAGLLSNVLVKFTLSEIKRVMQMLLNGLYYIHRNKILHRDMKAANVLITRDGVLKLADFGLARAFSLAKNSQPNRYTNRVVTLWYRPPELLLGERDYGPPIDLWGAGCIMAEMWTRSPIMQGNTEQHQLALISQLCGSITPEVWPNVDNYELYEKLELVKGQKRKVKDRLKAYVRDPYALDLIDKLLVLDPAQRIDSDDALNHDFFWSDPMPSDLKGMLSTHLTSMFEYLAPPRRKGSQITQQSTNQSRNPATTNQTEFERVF
Chain of CDK9/Cyclin K (O75909 whole entry partner): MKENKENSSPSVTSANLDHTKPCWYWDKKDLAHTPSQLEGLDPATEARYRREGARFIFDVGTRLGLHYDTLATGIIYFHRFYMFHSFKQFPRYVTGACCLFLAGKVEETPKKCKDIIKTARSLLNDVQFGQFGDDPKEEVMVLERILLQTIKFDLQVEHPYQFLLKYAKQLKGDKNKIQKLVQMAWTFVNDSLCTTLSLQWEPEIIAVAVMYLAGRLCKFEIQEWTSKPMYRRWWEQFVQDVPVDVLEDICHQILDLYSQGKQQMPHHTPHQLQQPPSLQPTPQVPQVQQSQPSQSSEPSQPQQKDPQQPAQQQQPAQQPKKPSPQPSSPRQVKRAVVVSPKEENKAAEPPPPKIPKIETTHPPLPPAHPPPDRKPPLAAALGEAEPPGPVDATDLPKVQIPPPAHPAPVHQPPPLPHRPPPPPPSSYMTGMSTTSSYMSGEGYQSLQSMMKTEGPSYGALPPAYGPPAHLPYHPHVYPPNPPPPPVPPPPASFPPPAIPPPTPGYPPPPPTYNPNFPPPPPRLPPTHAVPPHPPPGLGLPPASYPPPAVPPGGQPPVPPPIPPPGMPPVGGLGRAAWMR

all 21 human CDKs = test: Live-cell selectivity profile across all 21 CDK/cyclin complexes in HEK-293; type: binding; conditions: live cells
CDK12/Cyclin K = CDK12/Cyclin K (Homo sapiens, UniProt Q9NYV4); test: NanoBRET live-cell target engagement, CDK12-NanoLuc/Cyclin K in HEK-293; type: binding; conditions: CDK12/K, 10µM
CDK4/Cyclin D1 = CDK4/Cyclin D1 (Homo sapiens, UniProt P11802); test: NanoBRET live-cell target engagement, NanoLuc-CDK4/Cyclin D1 in HEK-293; type: binding; conditions: CDK4/D1, 10µM
Chain of CDK4/Cyclin D1 (P11802 whole entry): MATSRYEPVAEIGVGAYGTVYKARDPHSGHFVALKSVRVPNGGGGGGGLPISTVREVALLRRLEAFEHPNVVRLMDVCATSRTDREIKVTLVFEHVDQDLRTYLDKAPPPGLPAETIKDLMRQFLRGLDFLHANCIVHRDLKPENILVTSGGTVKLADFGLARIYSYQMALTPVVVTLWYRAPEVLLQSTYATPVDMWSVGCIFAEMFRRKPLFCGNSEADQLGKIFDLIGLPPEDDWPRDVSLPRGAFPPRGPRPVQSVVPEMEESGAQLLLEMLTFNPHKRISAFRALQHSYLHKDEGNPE
Chain of CDK4/Cyclin D1 (P24385 whole entry partner): as the sequence (P24385 whole entry partner) above

CDK2/Cyclin E1 = CDK2/Cyclin E1 (Homo sapiens, UniProt P24941); test: NanoBRET live-cell target engagement, CDK2-NanoLuc/Cyclin E1 in HEK-293; type: binding; conditions: CDK2/E1, 10µM
CDK14/Cyclin Y = CDK14/Cyclin Y (Homo sapiens, UniProt O94921); test: NanoBRET live-cell target engagement, CDK14-NanoLuc/Cyclin Y in HEK-293; type: binding; conditions: CDK14/Y, 10µM

Chain of CDK19/Cyclin C (Q9BWU1 whole entry): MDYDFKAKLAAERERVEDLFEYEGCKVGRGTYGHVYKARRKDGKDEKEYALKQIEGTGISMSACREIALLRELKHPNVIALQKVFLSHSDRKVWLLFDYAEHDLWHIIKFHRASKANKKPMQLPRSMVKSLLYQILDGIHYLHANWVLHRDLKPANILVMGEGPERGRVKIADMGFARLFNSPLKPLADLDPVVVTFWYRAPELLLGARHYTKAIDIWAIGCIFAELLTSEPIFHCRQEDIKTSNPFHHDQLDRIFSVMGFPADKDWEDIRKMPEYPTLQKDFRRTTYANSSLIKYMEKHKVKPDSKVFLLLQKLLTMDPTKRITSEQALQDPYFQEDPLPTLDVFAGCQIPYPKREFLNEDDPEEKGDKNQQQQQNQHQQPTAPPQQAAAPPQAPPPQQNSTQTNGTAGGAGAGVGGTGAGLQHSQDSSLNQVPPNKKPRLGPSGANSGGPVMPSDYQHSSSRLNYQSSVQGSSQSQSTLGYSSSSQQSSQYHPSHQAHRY
Chain of CDK19/Cyclin C (P24863 whole entry partner): as the sequence (P24863 whole entry partner) above

CCc1cnn2c(NCc3ccc[n+]([O-])c3)cc(N3CCCC[C@H]3CCO)nc12 [Dinaciclib]
inhibition at 10 µM (CDK19/Cyclin C; average): 35.5%
inhibition at 10 µM (CDK19/Cyclin C; experiment 1): 46.2%
inhibition at 10 µM (CDK19/Cyclin C; experiment 2): 24.7%
inhibition at 10 µM (CDK7; CDK7, experiment 1, read-out: Inhibition at 10µM (%)): 94.8%
inhibition at 10 µM (CDK7; CDK7, experiment 2, read-out: Inhibition at 10µM (%)): 91.5%
inhibition at 10 µM (CDK7; read-out: Inhibition at 10µM (%), CDK7, average): 93.1%
inhibition at 10 µM (CDK20/Cyclin H; experiment 1): 71.7%
inhibition at 10 µM (CDK20/Cyclin H; experiment 2): 78%
pIC50 (CDK10/Cyclin L2 [1]; IC50, [Probe 1] 0.5 µM): 6.07
pIC50 (CDK10/Cyclin L2 [1]; IC50, [Probe 1] 1 µM): 6.13
inhibition at 10 µM (CDK10/Cyclin L2 [1]; average): 74.8%
inhibition at 10 µM (CDK10/Cyclin L2 [1]; experiment 1): 77.5%
inhibition at 10 µM (CDK10/Cyclin L2 [1]; experiment 2): 72.2%
inhibition at 10 µM (CDK11A/Cyclin L2; average): 33%
inhibition at 10 µM (CDK11A/Cyclin L2; experiment 1): 36%
inhibition at 10 µM (CDK11A/Cyclin L2; experiment 2): 29.9%
pIC50 (CDK10/Cyclin L2 [2]): 6.14
inhibition at 10 µM (CDK11B/Cyclin L2; average): 45.5%
inhibition at 10 µM (CDK11B/Cyclin L2; experiment 1): 46.1%
inhibition at 10 µM (CDK11B/Cyclin L2; experiment 2): 45%
inhibition at 10 µM (CDK8/Cyclin C; average): 24.5%
inhibition at 10 µM (CDK8/Cyclin C; experiment 1): 40.6%
inhibition at 10 µM (CDK8/Cyclin C; experiment 2): 8.4%

O=C(Nc1c[nH]nc1-c1ccccn1)c1nn(C2CCNCC2)cc1Cl [BDP5290]
Inhibition at 10µM (%) Replicate 1 (CDK13/Cyclin K): 3.0%
Inhibition at 10µM (%) Replicate 2 (CDK13/Cyclin K): -9.6%
Inhibition at 10µM (%) Average (CDK13/Cyclin K; average of replicates): -3.3%
Inhibition at 10µM (%) Replicate 1 (CDK16/Cyclin Y): 4.2%
Inhibition at 10µM (%) Replicate 2 (CDK16/Cyclin Y): -9.2%
Inhibition at 10µM (%) Replicate 1 (CDK19/Cyclin C; CDK19/C, 10µM): 12.8%
Inhibition at 10µM (%) Replicate 2 (CDK19/Cyclin C; CDK19/C, 10µM): -7.7%
Inhibition at 10µM (%) Average (CDK19/Cyclin C; CDK19/C, 10µM, average of replicates): 2.6%
Inhibition at 10µM (%) Replicate 1 (CDK18/Cyclin Y): 16.5%
Inhibition at 10µM (%) Replicate 2 (CDK18/Cyclin Y): 10.0%
Inhibition at 10µM (%) Average (CDK18/Cyclin Y; average of replicates): 13.2%
Inhibition at 10µM (%) Replicate 1 (CDK15/Cyclin Y): 8.0%
Inhibition at 10µM (%) Replicate 2 (CDK15/Cyclin Y): 6.5%
Inhibition at 10µM (%) Average (CDK15/Cyclin Y; average of replicates): 7.2%
Inhibition at 10µM (%) Replicate 1 (CDK7; CDK7, 10µM): 9.8%
Inhibition at 10µM (%) Replicate 2 (CDK7; CDK7, 10µM): 16.0%
Inhibition at 10µM (%) Average (CDK7; CDK7, 10µM, average of replicates): 12.9%
Inhibition at 10µM (%) Replicate 1 (CDK6/Cyclin D1): 5.5%
Inhibition at 10µM (%) Replicate 2 (CDK6/Cyclin D1): 5.4%
Inhibition at 10µM (%) Average (CDK6/Cyclin D1; average of replicates): 5.5%
Inhibition at 10µM (%) Replicate 1 (CDK3/Cyclin E1): 4.4%
Inhibition at 10µM (%) Replicate 2 (CDK3/Cyclin E1): 3.4%
Inhibition at 10µM (%) Average (CDK3/Cyclin E1; average of replicates): 3.9%
Inhibition at 10µM (%) Replicate 1 (CDK5/CDK5R1): 7.9%
Inhibition at 10µM (%) Replicate 2 (CDK5/CDK5R1): -3.3%
Inhibition at 10µM (%) Average (CDK5/CDK5R1; average of replicates): 2.3%
Inhibition at 10µM (%) Replicate 1 (CDK20/Cyclin H; CDK20/H, 10µM): 14.8%
Inhibition at 10µM (%) Replicate 2 (CDK20/Cyclin H; CDK20/H, 10µM): 26.9%
Inhibition at 10µM (%) Replicate 1 (CDK1/Cyclin E1): 19.1%
Inhibition at 10µM (%) Replicate 2 (CDK1/Cyclin E1): 12.1%
Inhibition at 10µM (%) Average (CDK1/Cyclin E1; average of replicates): 15.6%
Inhibition at 10µM (%) Replicate 1 (CDK17/Cyclin Y): 0.247%
Inhibition at 10µM (%) Replicate 2 (CDK17/Cyclin Y): 1.8%
Inhibition at 10µM (%) Average (CDK17/Cyclin Y; average of replicates): 1.0%
Inhibition at 10µM (%) Replicate 1 (CDK9/Cyclin K): 12.5%
Inhibition at 10µM (%) Replicate 2 (CDK9/Cyclin K): 29.1%
Inhibition at 10µM (%) Average (CDK9/Cyclin K; average of replicates): 20.8%
engagement of CDKs at concentrations up to 10μM (all 21 human CDKs): only weakly engaged
Inhibition at 10µM (%) Replicate 1 (CDK10/Cyclin L2 [1]; CDK10/L2, 10µM): 1.9%
Inhibition at 10µM (%) Replicate 2 (CDK10/Cyclin L2 [1]; CDK10/L2, 10µM): 8.8%
Inhibition at 10µM (%) Average (CDK10/Cyclin L2 [1]; CDK10/L2, 10µM, average of replicates): 5.4%
Inhibition at 10µM (%) Replicate 1 (CDK11A/Cyclin L2; 10µM): -5.6%
Inhibition at 10µM (%) Replicate 2 (CDK11A/Cyclin L2; 10µM): 5.6%
Inhibition at 10µM (%) Average (CDK11A/Cyclin L2; 10µM, average of replicates): -0.00201%
Inhibition at 10µM (%) Replicate 1 (CDK12/Cyclin K): 6.2%
Inhibition at 10µM (%) Replicate 2 (CDK12/Cyclin K): -2.0%
Inhibition at 10µM (%) Average (CDK12/Cyclin K; average of replicates): 2.1%
Inhibition at 10µM (%) Replicate 1 (CDK4/Cyclin D1): 13.2%
Inhibition at 10µM (%) Replicate 2 (CDK4/Cyclin D1): 14.4%
Inhibition at 10µM (%) Average (CDK4/Cyclin D1; average of replicates): 13.8%
Inhibition at 10µM (%) Replicate 1 (CDK2/Cyclin E1): -7.9%
Inhibition at 10µM (%) Replicate 2 (CDK2/Cyclin E1): 7.7%
Inhibition at 10µM (%) Average (CDK2/Cyclin E1; average of replicates): -0.109%
Inhibition at 10µM (%) Replicate 1 (CDK11B/Cyclin L2; 10µM): 8.9%
Inhibition at 10µM (%) Replicate 2 (CDK11B/Cyclin L2; 10µM): -3.2%
Inhibition at 10µM (%) Average (CDK11B/Cyclin L2; 10µM, average of replicates): 2.8%
Inhibition at 10µM (%) Replicate 1 (CDK8/Cyclin C; 10µM): 6.1%
Inhibition at 10µM (%) Replicate 2 (CDK8/Cyclin C; 10µM): -10.6%
Inhibition at 10µM (%) Average (CDK8/Cyclin C; 10µM, average of replicates): -2.2%
Inhibition at 10µM (%) Replicate 1 (CDK14/Cyclin Y): -4.4%
Inhibition at 10µM (%) Replicate 2 (CDK14/Cyclin Y): -10.4%
Inhibition at 10µM (%) Average (CDK14/Cyclin Y; average of replicates): -7.4%
